From US11466044B2 (WAYNE STATE UNIVERSITY, priority 2017, dated 2022)
≈ marks a conversion by molar mass, not a printed value. Where two headings read alike, the source gives them in different places.

Columns and labels:
MRSA = experiment: MIC by broth microdilution, MRSA isolates; format: cell-based; conditions: Table 1 (Example 2); for MIC50: Staphylococcus aureus, MRSA
[1] = tested on: Klebsiella pneumonia AG215; experiment: MIC by broth microdilution, Klebsiella pneumonia; format: cell-based; conditions: strain AG215 Klebsiella pneumonia
E coli wild type = experiment: MIC by broth microdilution, wild type E coli; format: cell-based; conditions: for MIC AG212 E. coli: strain AG212 E. coli (ATCC25922)
M. smegmatis SZ380 = experiment: MIC by broth microdilution, M. smegmatis; conditions: for MIC SZ380 M. smegmatis: strain SZ380 Mycobacterium smegmatis
[2] = tested on: Enterobacter cloacae AG290; experiment: MIC by broth microdilution, Enterobacter cloacae; format: cell-based; conditions: strain AG290 Enterobacter cloacae
[3] = tested on: Acinetobacter baumannii pittii AG225; experiment: MIC by broth microdilution, Acinetobacter baumannii; format: cell-based; conditions: strain AG225 Acinetobacter baumannii pittii
[4] = tested on: E coli carrying specific resistance determinants; experiment: MIC by broth microdilution, E coli carrying specific resistance determinants; format: cell-based; conditions: for MIC50: Escherichia coli
P aeruginosa = experiment: MIC by broth microdilution, P aeruginosa isolates; format: cell-based, Pseudomonas aeruginosa; conditions: for MIC50: Pseudomonas aeruginosa
[5] = strain AG220 Pseudomonas aeruginosa ATCC27853

CCCC(O)C1OC(OC2C(N)CC(N)C(O)C2OC2OC(CO)C(OC3OC(CN)C(O)C(O)C3N)C2O)C(N)C(O)C1O (centres unmarked) [Compound 142]
MIC50 MRSA AG38 (MRSA; strain AG38): 4 µg/mL (≈ 6.08 µM) | MIC50 MRSA AG39 (MRSA; strain AG39): >128 µg/mL | MIC50 MRSA AG42 (MRSA; strain AG42): >128 µg/mL | MIC50 MRSA AG44 (MRSA; strain AG44): 2 µg/mL (≈ 3.04 µM) | MIC AG215 K. pneumon [1]: 1 µg/mL (≈ 1.52 µM) | MIC50 E coli BM13 (AG06) wt (E coli wild type; BM13 (AG06) wt, Table 2A (Example 2)): 1 µg/mL (≈ 1.52 µM) | MIC50 E coli pH430 WT (E coli wild type; pH430 WT, Table 2B (Example 2)): 1 μg/ml | MIC50 E coli AG01 (E coli wild type; strain AG01, Table 1 (Example 2)): 8 µg/mL (≈ 12.2 µM) | MIC50 E coli AG03 (E coli wild type; strain AG03, Table 1 (Example 2)): 8 µg/mL (≈ 12.2 µM) | MIC50 E coli AG55 (E coli wild type; strain AG55, Table 1 (Example 2)): 8 µg/mL (≈ 12.2 µM) | MIC AG212 E. coli (E coli wild type): 2 µg/mL (≈ 3.04 µM) | MIC SZ380 M. smegmatis (M. smegmatis SZ380): 0.5 µg/mL (≈ 0.76 µM) | MIC AG290 E. cloacae [2]: 1 µg/mL (≈ 1.52 µM) | MIC AG225 A. baumannii [3]: 2 µg/mL (≈ 3.04 µM) | MIC50 E coli AG036 ANT(4′,4″) ([4]; AG036 ANT(4′,4″), Table 2B (Example 2)): 32 to 64 µg/mL | MIC50 E coli AG037 APH(3′)-III ([4]; AG037 APH(3′)-III, Table 2B (Example 2)): >32 µg/mL | MIC50 E coli AG103 armA ([4]; AG103 armA, Table 2B (Example 2)): 1 µg/mL (≈ 1.52 µM) | MIC50 E coli pH414 AAC(6′)-I ([4]; pH414 AAC(6′)-I, Table 2B (Example 2)): 1 μg/ml | MIC50 E coli pH415 AAC(6′)-II ([4]; pH415 AAC(6′)-II, Table 2B (Example 2)): 1 μg/ml | MIC50 E coli pH421 APH(3′)-I ([4]; pH421 APH(3′)-I, Table 2B (Example 2)): >32 μg/ml | MIC50 E coli pH422 APH(3′)-II ([4]; pH422 APH(3′)-II, Table 2B (Example 2)): >32 μg/ml | MIC50 E coli pH423 APH(3)-VI ([4]; pH423 APH(3)-VI, Table 2B (Example 2)): >32 μg/ml | MIC50 E coli pH432 ANT(4′) ([4]; pH432 ANT(4′), Table 2B (Example 2)): 1 μg/ml | MIC50 P aeruginosa AG31 (P aeruginosa; strain AG31, Table 1 (Example 2)): >128 µg/mL | MIC50 P aeruginosa AG32 (P aeruginosa; strain AG32, Table 1 (Example 2)): >128 µg/mL | MIC50 P aeruginosa AG33 (P aeruginosa; strain AG33, Table 1 (Example 2)): >128 µg/mL | MIC50 P aeruginosa AG86 (P aeruginosa; strain AG86, Table 1 (Example 2)): >128 µg/mL | MIC AG220 P. aerugin (P aeruginosa; [5]): >32 µg/mL

CCC[C@@H]1C(CO)O[C@H](O[C@@H]2C(N)C[C@@H](N)C(O)[C@H]2O[C@@H]2O[C@H](CO)[C@H](O[C@H]3C[C@@H](CN)[C@@H](O)C(O)C3N)C2O)[C@@H](N)C1O (some centres unmarked) [Compound 116]
MIC AG215 K. pneumon [1]: 1 µg/mL (≈ 1.56 µM) | MIC AG160 E. coli WT (E coli wild type; clinical isolate AG160 WT, Table 2 (Example 4)): 1 µg/mL (≈ 1.56 µM) | MIC pH430 E. coli WT (E coli wild type; engineered strain pH430 WT, Table 2 (Example 4)): 0.5 μg/ml | MIC AG212 E. coli (E coli wild type): 2 µg/mL (≈ 3.13 µM) | MIC SZ380 M. smegmatis (M. smegmatis SZ380): 1 µg/mL (≈ 1.56 µM) | MIC AG290 E. cloacae [2]: 1 µg/mL (≈ 1.56 µM) | MIC AG225 A. baumannii [3]: 2 µg/mL (≈ 3.13 µM) | MIC AG163 E. coli APH(3′)-I ([4]; clinical isolate AG163 APH(3′)-I, Table 2 (Example 4)): >64 µg/mL | MIC AG166 E. coli APH(3′)-II ([4]; clinical isolate AG166 APH(3′)-II, Table 2 (Example 4)): 2 to 4 µg/mL | MIC AG037 E. coli APH(3′)-III ([4]; engineered strain AG037 APH(3′)-III, Table 2 (Example 4)): >64 µg/mL | MIC pH421 E. coli APH(3′)-I ([4]; engineered strain pH421 APH(3′)-I, Table 2 (Example 4)): >32 μg/ml | MIC pH422 E. coli APH(3′)-II ([4]; engineered strain pH422 APH(3′)-II, Table 2 (Example 4)): 0.5 μg/ml | MIC pH423 E. coli APH(3′)-VI ([4]; engineered strain pH423 APH(3′)-VI, Table 2 (Example 4)): 1 μg/ml | MIC AG220 P. aerugin (P aeruginosa; [5]): 4 µg/mL (≈ 6.25 µM)

CC(C)(O)C1O[C@H](O[C@@H]2C(N)C[C@@H](N)C(O)[C@H]2O[C@@H]2O[C@H](CO)[C@H](O[C@H]3O[C@@H](CN)[C@@H](O)C(O)C3N)C2O)C(N)[C@@H](O)[C@@H]1O (some centres unmarked) [Compound 159]
MIC50 (MRSA; strain AG38, read-out: MIC50 MRSA AG38): 8 to 16 µg/mL (≈ 12.4 to 24.9 µM) | MIC50 (MRSA; strain AG39, read-out: MIC50 MRSA AG39): > 128 µg/mL | MIC50 (MRSA; strain AG42, read-out: MIC50 MRSA AG42): > 128 µg/mL | MIC50 (MRSA; strain AG44, read-out: MIC50 MRSA AG44): 4 to 8 µg/mL (≈ 6.21 to 12.4 µM) | MIC ([1]; Klebsiella pneumoniae, read-out: MIC AG215 K. pneumon): 1 to 2 µg/mL (≈ 1.55 to 3.11 µM) | MIC (E coli wild type; Escherichia coli, ATCC25922, strain AG212 E. coli (ATCC25922), read-out: MIC AG212 E. coli): 4 µg/mL (≈ 6.21 µM) | MIC50 (E coli wild type; Escherichia coli, BM13 (AG06) wt, Table 2A (Example 2), read-out: MIC50 E coli BM13 (AG06) wt): 4 µg/mL (≈ 6.21 µM) | MIC50 (E coli wild type; Escherichia coli, pH430 WT, Table 2B (Example 2), read-out: MIC50 E coli pH430 WT): 1 to 2 µg/mL (≈ 1.55 to 3.11 µM) | MIC50 (E coli wild type; Escherichia coli, strain AG01, Table 1 (Example 2), read-out: MIC50 E coli AG01): 8 µg/mL (≈ 12.4 µM) | MIC50 (E coli wild type; Escherichia coli, strain AG03, Table 1 (Example 2), read-out: MIC50 E coli AG03): 8 µg/mL (≈ 12.4 µM) | MIC50 (E coli wild type; Escherichia coli, strain AG55, Table 1 (Example 2), read-out: MIC50 E coli AG55): 8 µg/mL (≈ 12.4 µM) | MIC (M. smegmatis SZ380; Mycolicibacterium smegmatis, SZ380, read-out: MIC SZ380 M. smegmatis, strain SZ380 Mycobacterium smegmatis): 2 µg/mL (≈ 3.11 µM) | MIC ([2]; read-out: MIC AG290 E. cloacae): 2 µg/mL (≈ 3.11 µM) | MIC [3]: 4 µg/mL (≈ 6.21 µM) | MIC50 ([4]; read-out: MIC50 E coli AG036 ANT(4′,4″), AG036 ANT(4′,4″), Table 2B (Example 2)): 16 to 32 µg/mL (≈ 24.9 to 49.7 µM) | MIC50 ([4]; read-out: MIC50 E coli AG037 APH(3′)-III, AG037 APH(3′)-III, Table 2B (Example 2)): > 64 µg/mL | MIC50 ([4]; read-out: MIC50 E coli AG103 armA, AG103 armA, Table 2B (Example 2)): 4 to 8 µg/mL (≈ 6.21 to 12.4 µM) | MIC50 ([4]; read-out: MIC50 E coli pH421 APH(3′)-I, pH421 APH(3′)-I, Table 2B (Example 2)): > 64 µg/mL | MIC50 ([4]; read-out: MIC50 E coli pH422 APH(3′)-II, pH422 APH(3′)-II, Table 2B (Example 2)): > 64 µg/mL | MIC50 ([4]; read-out: MIC50 E coli pH423 APH(3)-VI, pH423 APH(3)-VI, Table 2B (Example 2)): 8 µg/mL (≈ 12.4 µM) | MIC50 ([4]; read-out: MIC50 E coli pH432 ANT(4′), pH432 ANT(4′), Table 2B (Example 2)): 2 µg/mL (≈ 3.11 µM) | MIC50 (P aeruginosa; strain AG31, Table 1 (Example 2), read-out: MIC50 P aeruginosa AG31): > 128 µg/mL | MIC50 (P aeruginosa; strain AG32, Table 1 (Example 2), read-out: MIC50 P aeruginosa AG32): > 128 µg/mL | MIC50 (P aeruginosa; strain AG33, Table 1 (Example 2), read-out: MIC50 P aeruginosa AG33): > 128 µg/mL | MIC50 (P aeruginosa; strain AG86, Table 1 (Example 2), read-out: MIC50 P aeruginosa AG86): > 128 µg/mL | MIC (P aeruginosa; strain AG220 Pseudomonas aeruginosa ATCC27853, read-out: MIC AG220 P. aerugin): > 64 µg/mL
